# Test results as given in US20090093538A1, “Method for treating cancer” (priority 2007, published 2009).
# What was measured:
# Hsp70 [1] = assay: Hsp70 induction in tumor and non-tumor cells (Western blot); format: cell-based, human; conditions: 0.5 μM, 15 hours; MDA-MB-435 vs HMEC and HRE cells
# Protocol: MDA-MB-435, human mammary epithelial (HMEC) […] (see Ross et al., “Systematic variation in gene expression patterns in human cancer cell lines,” Nat. Genet. (2000). 24(3):227-3.), and human renal epithelial (HRE) cells were seeded in 100 mm tissue culture plates at 1.5×10^6 cells/plate and incubated at 37° C. with 5% CO2 for several hours. […] After treatment the cells were lysized and used for Western blot analysis.
# (§1) Samples were run on a SDS-PAGE gel and proteins were transferred onto a nitrocellulose membrane. Nitrocellulose was blocked with 5% skim milk in TBS with 0.5% Tween at room temperature for 1 hour and then probed with anti-Hsp70 (mouse IgG, sc-24, Santa Cruz) antibody. The nitrocellulose was then probed with secondary antibodies, HRP-conjugated goat anti-rabbit IgG and HRP-conjugated horse anti-mouse IgG (#7074, #7076, Cell Signaling). LumiGLO reagent, 20× Peroxide (#7003, Cell Signaling) was used to visualize gel (see FIG. 25).
# Ramos cells = assay: ROS generation, carboxy-H2DCFDA probe, flow cytometry; format: cell-based
# Protocol: In these experiments, we monitored the production of ROS using the cell permeable Carboxy-H2DCFDA probe. When this probe is oxidized by ROS, it emits a green fluorescence that can be detected using flow cytometry or fluorescent microscopy. […] 25 μM carboxy-H2DCFDA (Invitrogen. C400) working solution was added to cover the cells, and the cells were incubate for 30 minutes at 37° C., protected from light. The cells were gently washed three times in warm HBSS/Ca/Mg. ROS levels, as determined by fluorescence intensity, were determined by flow cytometry (excitation at 495 nm, emission at 529 nm).
# Tiron is a direct scavenger of ROS and is a potent inhibitor of oxidative stress.
# Ramos cells were treated with elesclomol (500 nM) for the indicated times then washed gently once with warm HBSS/Ca/Mg (Invitrogen Carlsbad, Calif. Cat# 14025). 25 μM carboxy-H2DCFDA (Invitrogen Cat #C400) working solution was added to cover the cells and they were incubated for 30 minutes at 37° C., protected from light. The cells were gently washed three times in warm HBSS/Ca/Mg. ROS levels (fluorescence intensity) were determined by flow cytometry (excitation at 495 nm, emission at 529 nm) using a Becton Dickinson FACSCalibur equipped with CellQuest Pro software. Data is plotted as percent of elesclomol-treated cells with DCFDA fluorescence relative to DMSO (control) treated cells (see FIG. 49).
# MDA-MB-435 cells = assay: Lysis of target cells by mouse splenocytes (MTS assay); format: cell-based, human; conditions: 0.1 or 0.5 μM, about 15 hours, splenocytes 10:1, 24 hours
# Protocol: (§2) MDA-MB-435 cells were purchased from American Type culture collection. Human mammary epithelial (HMEC), human renal epithelial (HRE) cells and medium for maintaining the cells were obtained from Cambrex Bioproducts. Mouse splenocytes were isolated form CD1 nude mice (Jackson Lab). […] Mouse splenocytes were isolated from Nude mice and mixed with MDA-MB-435, HMEC and HRE cells at ratio of 10:1. The mixed cells were incubated at 37° C. for 24 hours in the tissue culture medium and MTS assay was performed to measure viability of the cells with an ELISA reader (DYNEX Technologies). Cytotoxicity (C) was calculated based on an equation below: C=[1-([…])]×100%
# HMEC and HRE cells = assay: as above; format: cell-based, human; conditions: non-cancerous HMEC and HRE cells; 0.1 or 0.5 μM, about 15 hours; splenocytes 10:1, 24 hours
# Protocol: as §2
# [2] = human, in vivo
# Hsp70 [3] = assay: Cell surface expression of Hsp70, HT29 cells (confocal microscopy); format: cell-based, human; conditions: HT29, 500 nM, 6 hrs
# Protocol: After treatment, cells were rinsed one time in PBS then fixed in 2% Paraformaldehyde at room temperature for 20 minutes. Slides with the fixed cells were rinsed with PBS two times. Primary antibody mouse monoclonal anti-Hsp70 (Stressgen SPA-8 10) was diluted 1:100 in PBS and the slides were incubated 1 hour at 37° C. The slides were rinsed two times with PBS. Secondary antibody anti-mouse AlexaFluor 488 (Molecular Probes A-11001) was diluted 1:500 in PBS and the slides were incubated 30 min at 37° C. The slides were rinsed two times in PBS. DAPI (Molecular Probes D-3571) were diluted 1:10,000 in PBS and the slides were incubated at room temperature in dark for 5 min. The slides were rinsed two times in PBS, then once in deionized water and left to dry in dark until almost completely dry. Coverslips were mounted with Prolong Anti-fade Mounting Media (Molecular Probes P-748 1). The images were captured with a monochrome CCD camera SenSys (see FIGS. 27A-D and 28A-D) or by confocal microscopy (see FIG. 29A-E). In FIGS. 27A-D and 28A-D, the bright pink color on the surface of the MCF-7 cells (FIG. 27A-D) or CEM cells (FIG. 28A-D) indicates Hsp70 on the surface of the cells. In FIG. 29A-E the bright green color on the surface of the cell indicates Hsp70 on the surface of the HT29 cells.
# HSB2 cells = assay: Apoptosis, Annexin V / propidium iodide FACS; format: cell-based
# Protocol: To confirm that the ability of NAC to block Compound 1-induced cell death was not cell-line specific, we examined the role of oxidative stress in two additional cell lines by FAC analysis. RAMOS and HSB2 cells (ATCC) were seeded in 6-well plates at 1×10^6 cells/well/4 mL and incubated at 37° C. for 4 hours. […] After incubation the cells were stained with Annexin V and propidium iodide (Vybrant Apoptosis assay kit, Cat# V13241, Invitrogen, Molecular Probes) for measuring apoptotic cells by FACS analysis.
# The cells were harvested and stained with Annexin V and propidium iodide for measuring apoptotic cells by FACS analysis.
# p38 kinase = assay: p38 phosphorylation, Western blot, MDA-MB-435 cells; format: cell-based, human; conditions: 10, 50, 100, 500 or 1000 nM, 4 hours
# Protocol: After treatment the cells were lysized and used for Western blot analysis.
# as §1, with “membrane by a semi-dry transfer.” for “membrane.”, “anti-phospho-p38 (Cell Signaling, #9216)” for “anti-Hsp70 (mouse IgG, sc-24, Santa Cruz)”, “35).” for “25).”
# [4] = Compound 1 0.2 μM plus NAC 5 mM, 20 hours
# [5] = Compound 1 0.2 μM, 20 hours (FIG. 39D)
compound,measurement,setting,value
CN(NC(=O)CC(=O)NN(C)C(=S)c1ccccc1)C(=S)c1ccccc1 [Compound 1],induction of Hsp70,Hsp70 [1],"preferentially induces Hsp70 in MDA-MB-435 tumor cells compared to non-tumor HMEC, and HRE cells"
same,generation of ROS,"Ramos cells; 0.5 μM, 24 hours",induced the generation of ROS
same,earliest time at which induction of ROS was observed,"Ramos cells; Ramos cells, time course",3 h
same,increase in lysis compared to cells treated with DMSO alone,MDA-MB-435 cells,about 15%
same,increase in lysis compared to cells treated with DMSO alone,HMEC and HRE cells,only slightly increased
same,serious side effects,[2],No serious side effects specifically attributable to Compound 1 were observed
same,Hsp70 on the surface of cells,Hsp70 [3],bright green color on the surface of the cells indicating Hsp70
same,early apoptotic cells,"HSB2 cells; 200 nM Compound 1, 24 hours (DMSO 12%)",45%
same,cells in early stages of apoptosis,HSB2 cells; [4],2.9%
same,cells in late stages of apoptosis,HSB2 cells; [4],3.8%
same,early apoptotic cells,"HSB2 cells; Compound 1 0.2 μM plus NAC 5 mM, 24 hours",6%
same,cells in early stages of apoptosis,HSB2 cells; [5],26.6%
same,cells in late stage apoptosis,HSB2 cells; [5],41.5%
same,phosphorylation and activation of p38 kinase,p38 kinase,induces the phosphorylation and activation of p38 kinase in a dose dependent manner
